The compounds below were run on CAL-51 (assay: normalised viability (% of control), CellTiter-Blue; higher = more viable cells (100 = DMSO, 0 = benzethonium chloride kill control)). Conditions: incubation time: 72 h.
Method in brief: (§1)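 Breast cancer cell lines were treated for 72 h in 384-well format and measured by CellTiter-Blue fluorescence at 560/590 nm. Results were normalised per plate to vehicle (100) and a positive kill control (0). The entry is normalised viability at a single listed concentration of the series.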
Compound C[C@@]1(C(=O)Nc2ccc(F)nc2)CCCN1c1nc(Nc2cc(C3CC3)n[nH]2)c2cccn2n1 (1 nM) has a normalised viability of 99.6%. O=c1[nH]c(=O)n([C@H]2C[C@H](O)[C@@H](CO)O2)cc1F [Floxuridine] (1 nM) showed a normalised viability of 98.2%. Work on O=c1[nH]cc(F)c(=O)[nH]1 [Fluorouracil] (1 nM) yielded a normalised viability of 100%. Compound CS(=O)(=O)OCCCCOS(C)(=O)=O [Busulfan] (10 nM) has a normalised viability of 88.3%. CCOc1cc2ncc(C#N)c(Nc3ccc(OCc4ccccn4)c(Cl)c3)c2cc1NC(=O)/C=C/CN(C)C [Neratinib] (0.1 nM) showed a normalised viability of 91.5%.

These compounds were tested on BT-474 in the same assay as above. Conditions: incubation time: 72 h.
Method in brief: as §1
In the case of COc1c(C)cnc(Cn2cnc3c(Cl)nc(N)nc32)c1C [BIIB021] (1 nM), the normalised viability is reported as 91.7%. C[C@@]1(C(=O)Nc2ccc(F)nc2)CCCN1c1nc(Nc2cc(C3CC3)n[nH]2)c2cccn2n1 (1 nM) was tested, and the normalised viability was 99%. O=c1[nH]c(=O)n([C@H]2C[C@H](O)[C@@H](CO)O2)cc1F [Floxuridine] (1 nM) was tested, and the normalised viability was 91.2%. O=c1[nH]cc(F)c(=O)[nH]1 [Fluorouracil] (1 nM) showed a normalised viability of 107%. Work on CS(=O)(=O)OCCCCOS(C)(=O)=O [Busulfan] (10 nM) yielded a normalised viability of 82.1%. Compound CCOc1cc2ncc(C#N)c(Nc3ccc(OCc4ccccn4)c(Cl)c3)c2cc1NC(=O)/C=C/CN(C)C [Neratinib] (0.1 nM) has a normalised viability of 97.3%.

What follows are compounds tested on SK-BR-3 in the same assay as above. Conditions: incubation time: 72 h.
Method in brief: as §1
COc1c(C)cnc(Cn2cnc3c(Cl)nc(N)nc32)c1C [BIIB021] (1 nM) showed a normalised viability of 75.8%. With C[C@@]1(C(=O)Nc2ccc(F)nc2)CCCN1c1nc(Nc2cc(C3CC3)n[nH]2)c2cccn2n1 (1 nM) the normalised viability was 101%. Work on O=c1[nH]c(=O)n([C@H]2C[C@H](O)[C@@H](CO)O2)cc1F [Floxuridine] (1 nM) yielded a normalised viability of 97.2%. In the case of O=c1[nH]cc(F)c(=O)[nH]1 [Fluorouracil] (1 nM), the normalised viability is reported as 103%. Work on CS(=O)(=O)OCCCCOS(C)(=O)=O [Busulfan] (10 nM) yielded a normalised viability of 97%. In the case of CCOc1cc2ncc(C#N)c(Nc3ccc(OCc4ccccn4)c(Cl)c3)c2cc1NC(=O)/C=C/CN(C)C [Neratinib] (0.1 nM), the normalised viability is reported as 99.8%.

The compounds below were run on BT-549 in the same assay as above. Conditions: incubation time: 72 h.
Method in brief: as §1
Work on COc1c(C)cnc(Cn2cnc3c(Cl)nc(N)nc32)c1C [BIIB021] (1 nM) yielded a normalised viability of 97.7%. C[C@@]1(C(=O)Nc2ccc(F)nc2)CCCN1c1nc(Nc2cc(C3CC3)n[nH]2)c2cccn2n1 (1 nM) was tested, and the normalised viability was 88.2%. O=c1[nH]c(=O)n([C@H]2C[C@H](O)[C@@H](CO)O2)cc1F [Floxuridine] (1 nM) showed a normalised viability of 123%. O=c1[nH]cc(F)c(=O)[nH]1 [Fluorouracil] (1 nM) was tested, and the normalised viability was 114%. In the case of CS(=O)(=O)OCCCCOS(C)(=O)=O [Busulfan] (10 nM), the normalised viability is reported as 92.2%. In the case of CCOc1cc2ncc(C#N)c(Nc3ccc(OCc4ccccn4)c(Cl)c3)c2cc1NC(=O)/C=C/CN(C)C [Neratinib] (0.1 nM), the normalised viability is reported as 105%.

Each compound was assayed on HCC1143 in the same assay as above. Conditions: incubation time: 72 h.
Method in brief: as §1
Work on COc1c(C)cnc(Cn2cnc3c(Cl)nc(N)nc32)c1C [BIIB021] (1 nM) yielded a normalised viability of 82.9%. C[C@@]1(C(=O)Nc2ccc(F)nc2)CCCN1c1nc(Nc2cc(C3CC3)n[nH]2)c2cccn2n1 (1 nM) was tested, and the normalised viability was 92%. In the case of O=c1[nH]c(=O)n([C@H]2C[C@H](O)[C@@H](CO)O2)cc1F [Floxuridine] (1 nM), the normalised viability is reported as 98.6%. O=c1[nH]cc(F)c(=O)[nH]1 [Fluorouracil] (1 nM) showed a normalised viability of 102%. With CS(=O)(=O)OCCCCOS(C)(=O)=O [Busulfan] (10 nM) the normalised viability was 100%. Compound CCOc1cc2ncc(C#N)c(Nc3ccc(OCc4ccccn4)c(Cl)c3)c2cc1NC(=O)/C=C/CN(C)C [Neratinib] (0.1 nM) has a normalised viability of 103%.

Each compound was assayed on MDA-MB-468 in the same assay as above. Conditions: incubation time: 72 h.
Method in brief: as §1
Compound COc1c(C)cnc(Cn2cnc3c(Cl)nc(N)nc32)c1C [BIIB021] (1 nM) has a normalised viability of 94.6%. In the case of C[C@@]1(C(=O)Nc2ccc(F)nc2)CCCN1c1nc(Nc2cc(C3CC3)n[nH]2)c2cccn2n1 (1 nM), the normalised viability is reported as 107%. O=c1[nH]c(=O)n([C@H]2C[C@H](O)[C@@H](CO)O2)cc1F [Floxuridine] (1 nM) was tested, and the normalised viability was 99.9%. O=c1[nH]cc(F)c(=O)[nH]1 [Fluorouracil] (1 nM) was tested, and the normalised viability was 113%. For CS(=O)(=O)OCCCCOS(C)(=O)=O [Busulfan] (10 nM), the normalised viability was 102%. Work on CCOc1cc2ncc(C#N)c(Nc3ccc(OCc4ccccn4)c(Cl)c3)c2cc1NC(=O)/C=C/CN(C)C [Neratinib] (0.1 nM) yielded a normalised viability of 100%.

Each compound was assayed on CAL-85-1 in the same assay as above. Conditions: incubation time: 72 h.
Method in brief: as §1
COc1c(C)cnc(Cn2cnc3c(Cl)nc(N)nc32)c1C [BIIB021] (1 nM) gave a normalised viability of 78.1%. C[C@@]1(C(=O)Nc2ccc(F)nc2)CCCN1c1nc(Nc2cc(C3CC3)n[nH]2)c2cccn2n1 (1 nM) gave a normalised viability of 92.9%. O=c1[nH]c(=O)n([C@H]2C[C@H](O)[C@@H](CO)O2)cc1F [Floxuridine] (1 nM) was tested, and the normalised viability was 94.1%. With O=c1[nH]cc(F)c(=O)[nH]1 [Fluorouracil] (1 nM) the normalised viability was 106%. With CS(=O)(=O)OCCCCOS(C)(=O)=O [Busulfan] (10 nM) the normalised viability was 105%. CCOc1cc2ncc(C#N)c(Nc3ccc(OCc4ccccn4)c(Cl)c3)c2cc1NC(=O)/C=C/CN(C)C [Neratinib] (0.1 nM) gave a normalised viability of 83%.

The compounds below were run on HCC1599 in the same assay as above. Conditions: incubation time: 72 h.
Method in brief: as §1
COc1c(C)cnc(Cn2cnc3c(Cl)nc(N)nc32)c1C [BIIB021] (1 nM) showed a normalised viability of 143%. C[C@@]1(C(=O)Nc2ccc(F)nc2)CCCN1c1nc(Nc2cc(C3CC3)n[nH]2)c2cccn2n1 (1 nM) gave a normalised viability of 102%. For O=c1[nH]c(=O)n([C@H]2C[C@H](O)[C@@H](CO)O2)cc1F [Floxuridine] (1 nM), the normalised viability was 95.7%. O=c1[nH]cc(F)c(=O)[nH]1 [Fluorouracil] (1 nM) was tested, and the normalised viability was 80.1%. Compound CS(=O)(=O)OCCCCOS(C)(=O)=O [Busulfan] (10 nM) has a normalised viability of 105%. CCOc1cc2ncc(C#N)c(Nc3ccc(OCc4ccccn4)c(Cl)c3)c2cc1NC(=O)/C=C/CN(C)C [Neratinib] (0.1 nM) gave a normalised viability of 104%.

These compounds were tested on CAL-148 in the same assay as above. Conditions: incubation time: 72 h.
Method in brief: as §1
Work on COc1c(C)cnc(Cn2cnc3c(Cl)nc(N)nc32)c1C [BIIB021] (1 nM) yielded a normalised viability of 96.5%. For C[C@@]1(C(=O)Nc2ccc(F)nc2)CCCN1c1nc(Nc2cc(C3CC3)n[nH]2)c2cccn2n1 (1 nM), the normalised viability was 97.1%. O=c1[nH]c(=O)n([C@H]2C[C@H](O)[C@@H](CO)O2)cc1F [Floxuridine] (1 nM) showed a normalised viability of 102%. Compound O=c1[nH]cc(F)c(=O)[nH]1 [Fluorouracil] (1 nM) has a normalised viability of 109%. With CS(=O)(=O)OCCCCOS(C)(=O)=O [Busulfan] (10 nM) the normalised viability was 131%. CCOc1cc2ncc(C#N)c(Nc3ccc(OCc4ccccn4)c(Cl)c3)c2cc1NC(=O)/C=C/CN(C)C [Neratinib] (0.1 nM) was tested, and the normalised viability was 96.7%.

The compounds below were run on MDA-MB-231 (assay: normalised response (% of control), CellTiter-Glo; higher = more viable cells (100 = DMSO, 0 = benzethonium chloride kill control)). Conditions: incubation time: 72 h.
Method in brief: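 For each plate, 0.1 % DMSO was set to 100 and a positive kill control to 0. Breast cancer cell lines (20 µl suspension) were seeded into 384-well plates already holding compound at 5 concentrations in 10-fold steps over a 10,000-fold range chosen per compound, and incubated for 72 h. CellTox Green fluorescence at 485/520 nm was read before CellTiter-Glo luminescence, which followed 10 min at room temperature. Each value is the normalised signal at one concentration.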
In the case of COc1c(C)cnc(Cn2cnc3c(Cl)nc(N)nc32)c1C [BIIB021] (1 nM), the normalised response is reported as 112%. C[C@@]1(C(=O)Nc2ccc(F)nc2)CCCN1c1nc(Nc2cc(C3CC3)n[nH]2)c2cccn2n1 (1 nM) showed a normalised response of 94.2%. O=c1[nH]c(=O)n([C@H]2C[C@H](O)[C@@H](CO)O2)cc1F [Floxuridine] (1 nM) showed a normalised response of 107%.

Source: the supplement of paper PMC4862054
